From US20100305068A1, “COMPOUNDS AND METHODS FOR MODULATING PROTEIN TRAFFICKING” (priority 2006, published 2010)
Read-outs that look alike come from different tables or passages of the source.

System: pdr5 ypt1^ts cells
Experiment: microbe, parasite or virus in culture
Assay type: cell-based, yeast
Settings: 37° C.; for optical density, 3.13 uM / optical density, 12.5 uM / optical density, 50 uM: Table 3, background (0 uM) 0.077; for optical density, 3.13 uM: 3.13 uM compound; for optical density, 12.5 uM: 12.5 uM compound; for optical density, 50 uM: 50 uM compound; for minimal effective concentration / optical density, ypt1-ts, 0.39 / optical density, ypt1-ts, 0.78 / optical density, ypt1-ts, 1.56 / optical density, ypt1-ts, 3.13 / optical density, ypt1-ts, 6.25 / optical density, ypt1-ts, 12.5 / optical density, ypt1-ts, 25: Table 2; for minimal effective concentration: lowest concentration tested giving growth above the 0 μM background, read-out: ypt1-ts MRC (minimal rescue concentration); for optical density, ypt1-ts, 0.39: 0.39 μM compound; for optical density, ypt1-ts, 0.39 / optical density, ypt1-ts, 0.78 / optical density, ypt1-ts, 1.56 / optical density, ypt1-ts, 3.13 / optical density, ypt1-ts, 6.25 / optical density, ypt1-ts, 12.5 / optical density, ypt1-ts, 25: background (0 μM) 0.058; for optical density, ypt1-ts, 0.78: 0.78 μM compound; for optical density, ypt1-ts, 1.56: 1.56 μM compound; for optical density, ypt1-ts, 3.13: 3.13 μM compound; for optical density, ypt1-ts, 6.25: 6.25 μM compound; for optical density, ypt1-ts, 12.5: 12.5 μM compound; for optical density, ypt1-ts, 25: 25 μM compound
Method in brief: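 Whole-cell yeast growth-rescue screen: pdr5 ypt1^ts cells (efflux pump inactivated), growth-arrested at 37° C., cultured with compounds at 37° C. Restoration of growth read by optical density.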

Row | Compound | optical density, 3.13 uM | optical density, 12.5 uM | optical density, 50 uM | minimal effective concentration (Saccharomyces cerevisiae) [µM] | optical density, ypt1-ts, 0.39 | optical density, ypt1-ts, 0.78 | optical density, ypt1-ts, 1.56 | optical density, ypt1-ts, 3.13 | optical density, ypt1-ts, 6.25 | optical density, ypt1-ts, 12.5 | optical density, ypt1-ts, 25 | minimal effective concentration [µM]
1 | COC(=O)CCCOc1ccc(Cl)cc1Cl [2,4-DICHLORO- PHENOXY- BUTYRIC ACID, METHYL ESTER] | 0.159 | 0.255 | 0.221 |  |  |  |  |  |  |  |  | 
2 | COc1ccc(C(=O)c2ccccc2O)c(O)c1 [DIOXY- BENZONE, reference compound] | 0.088 | 0.12 | 0.579 |  |  |  |  |  |  |  |  | 
3 | O=C([O-])Cc1ccccc1Nc1c(Cl)cccc1Cl.[Na+] [DICLOFENAC SODIUM, reference compound] |  |  |  | 12.5 | 0.085 | 0.072 | 0.077 | 0.089 | 0.092 | 0.126 | 0.242 | 
4 | CCOc1cccc(C(=O)c2ccc(O)c(O)c2O)c1 [3,4-DIDESMETHYL-5- DESHYDROXY-3'- ETHOXYSCLEROIN] |  |  |  | 6.25 | 0.094 | 0.075 | 0.091 | 0.108 | 0.143 | 0.185 | 0.396 | 
5 | Clc1ccc(Cl)cc1 [PARA- DICHLORO- BENZENE] | 0.169 | 0.28 | 0.202 |  |  |  |  |  |  |  |  | 
6 | CC(CCC(=O)O)[C@H]1CCC2C3C(CC[C@@]21C)[C@@]1(C)CC[C@@H](O)C[C@H]1C[C@@H]3O (stereo partly drawn) [URSODIOL, reference compound] | 0.202 | 0.41 | 0.523 |  |  |  |  |  |  |  |  | 
7 | CHLORO- PHYLLIDE Cu COMPLEX Na SALT | 0.064 | 0.054 | 0.305 |  |  |  |  |  |  |  |  | 
8 | COC(=O)[C@]1(C)CC[C@]2(C)CC[C@]3(C)C4=CCc5c(cc(O)c(O)c5C)[C@]4(C)CC[C@@]3(C)[C@@H]2C1 [PRISTIMEROL] |  |  |  | 6.25 | 0.11 | 0.079 | 0.101 | 0.114 | 0.168 | 0.362 | 0.591 | 
9 | CCOC(=O)C1(O)Oc2cc(OC)cc(OC)c2C(=O)C1c1ccccc1 (stereo not drawn) [2-ETHOXY- CARBONYL-2- HYDROXY-5,7- DIMETHOXY- ISOFLAVANONE] | 0.091 | 0.134 | 0.468 |  |  |  |  |  |  |  |  | 
10 | DACTINOMYCIN [reference compound] |  |  |  |  | 0.093 | 0.071 | 0.082 | 0.104 | 0.351 | 0.663 | 0.669 | 6.25
11 | C#CCCCCCCCCCCCC(O)CC(O)CO (stereo not drawn) [AVO- CADYNE] | 0.132 | 0.425 | 0.265 |  |  |  |  |  |  |  |  | 
12 | CC(=O)c1cc(CC=C(C)C)c(O)c(CC=C(C)C)c1 |  |  |  | 25 | 0.085 | 0.077 | 0.082 | 0.108 | 0.096 | 0.112 | 0.195 | 
13 | CNC(=O)Oc1ccccc1OC(C)C [PROPOXUR] | 0.194 | 0.289 | 0.231 |  |  |  |  |  |  |  |  | 
14 | CC(=O)[C@H]1CCC2C3C[C@H](C)C4=CC(=O)CC[C@]4(C)C3[C@@H](O)C[C@@]21C (stereo partly drawn) [MEDRY- SONE, reference compound] | 0.114 | 0.165 | 0.266 |  |  |  |  |  |  |  |  | 
15 | NIMODIPINE [reference compound] |  |  |  |  | 0.097 | 0.081 | 0.096 | 0.113 |  | 0.178 | 0.27 | 12.5
16 | COc1c(C(C)C)oc2cc3oc(=O)ccc3cc12 [PEUCEDANIN] | 0.138 | 0.25 | 0.461 |  |  |  |  |  |  |  |  | 
17 | CC(C)C1=CC2=CCC3[C@](C)(CCC[C@]3(C)C(=O)O)C2CC1 (stereo partly drawn) [ABIETIC ACID] |  |  |  | 3.13 | 0.107 | 0.079 | 0.1 | 0.165 | 0.173 | 0.528 | 0.61 | 
18 | C=C1C([C@@]2(C)[C@@H](C)CC(=O)C(C)(C)[C@@H]2C(OC(C)=O)C(=O)OC)CC[C@@]2(C)[C@H](c3ccoc3)OC(=O)C[C@]12O (stereo partly drawn) [6-ACETOXY- […] METHYL ESTER] | 0.131 | 0.364 | 0.489 |  |  |  |  |  |  |  |  | 
19 | CC1=C2C(=CO[C@H](C)[C@H]2C)C(=O)C(C(=O)O)=C1O [CITRININ] | 0.102 | 0.158 | 0.38 |  |  |  |  |  |  |  |  | 
20 | C#CCCCCCCCCCCCC(O)CC(O)COC(C)=O (stereo not drawn) [AVOCADYNE ACETATE] | 0.389 | 0.406 | 0.039 |  |  |  |  |  |  |  |  | 
21 | C=CCC1(C(C)CCC)C(=O)N=C([S-])NC1=O.[Na+] (stereo not drawn) [THIAMYLAL SODIUM, reference compound] |  |  |  | 12.5 | 0.089 | 0.071 | 0.089 | 0.101 | 0.103 | 0.162 | 0.209 | 
22 | O=c1oc2ccccc2cc1O [3- HYDROXY- COUMARIN] | 0.083 | 0.109 | 0.299 |  |  |  |  |  |  |  |  | 
23 | COC(=O)C[C@H]1C(C)(C)[C@@H](OC(C)=O)[C@@H]2CC3C(CC[C@]4(C)C3CC(=O)O[C@H]4c3ccoc3)[C@]1(C)C2=O (stereo partly drawn) [DIHYDRO- FISSINOLIDE] | 0.079 | 0.085 | 0.308 |  |  |  |  |  |  |  |  | 
24 | C[n+]1cc2c3c(ccc2c2ccc4cc5c(cc4c21)OCO5)OCO3.O=S(=O)([O-])O [SANGUINARINE SULFATE] |  |  |  | 12.5 | 0.092 | 0.076 | 0.077 | 0.089 | 0.111 | 0.165 | 0.345 | 
25 | O=C(/C=C/c1ccccc1)c1ccc(O)cc1 [4'- HYDROXYCHALCONE] |  |  |  | 12.5 | 0.088 | 0.073 | 0.079 | 0.093 | 0.1 | 0.329 | 0.552 | 
26 | O=C1c2ccccc2-c2cccc3cccc1c23 [BENZANTHRONE] |  |  |  | 3.13 | 0.108 | 0.09 | 0.123 | 0.263 | 0.491 | 0.547 | 0.383 | 
